test system: LNCaP; assay: Antiproliferative activity against human LNCaP cell line; format: functional, cell-based; conditions: Homo sapiens, LNCaP; read-out: IC50; call rule not given here

SMILES	IC50 [nM]
COc1cc2c(cc1O)CC[C@@H]1[C@@H]2CC[C@]2(C)[C@@H](OC(=O)CNC(=O)CCCCCNC(=O)CCCC[C@@H]3SC[C@@H]4NC(=O)N[C@@H]43)CC[C@@H]12	600
COc1cc2c(cc1O)CC[C@@H]1[C@@H]2CC[C@]2(C)[C@@H](OC(=O)CNC(=O)CCCCCN)CC[C@@H]12	600
COc1cc2c(cc1O)CC[C@@H]1[C@@H]2CC[C@]2(C)[C@@H](OC(=O)CN)CC[C@@H]12	900
COc1cc2c(cc1O)CC[C@@H]1[C@@H]2CC[C@]2(C)[C@@H](O)CC[C@@H]12 [2-METHOXYESTRADIOL]	500
COc1cc2c(cc1O)CC[C@@H]1[C@@H]2CC[C@]2(C)[C@@H](OC(=O)CNC(=O)CCCCCNC(=O)OC(C)(C)C)CC[C@@H]12	600

same assay, conditions: lncap

SMILES	IC50
COc1cc2c(cc1O)CC[C@@H]1[C@@H]2CC[C@]2(C)[C@@H](OC(=O)CNC(=O)OCC3c4ccccc4-c4ccccc43)CC[C@@H]12	Not Active

— ChEMBL document CHEMBL1138074, “SAR studies of 2-methoxyestradiol and development of its analogs as probes of anti-tumor mechanisms” (Bioorg Med Chem Lett, 2006)
